# Experimental data as given in patent publication US10610564B2, “IRGM and precision autophagy controls for antimicrobial and inflammatory disease states and methods of detection of autophagy” (STC.UNM, priority 2015, dated 2020).
# Tests used:
# AMPK = settings: statement in figure legend; compound C used at 20, 40, 80, 160 μM; cited from earlier work
# dimerized IRF3 = test: IRF3 dimerization assay (native PAGE) in THP-1 cells; assay type: cell-based, human; settings: HT-DNA and IFN-γ, with bafilomycin
# Text: (A) Confocal microscopy of HeLa cells co-expressing mCherry-TRIM21, Flag-IRF3, and GFP-LC3B in the presence of bafilomycin A1. White outline, cell boundary. Arrows indicate the colocalization. (B) Confocal microscopy of HEK293 cells co-expressing mCherry-TRIM21, Flag-IRF3, and GFP-ULK1. (C) Co-immunoprecipitation analysis of IRF3-ULK1 complexes in the presence and absence of TRIM21. Lysates from HEK293 cells transiently expressing Myc-ULK1, Flag-IRF3, and either […] or GFP were immunoprecipitated with anti-Myc, and immunoblots were probed as indicated. (D) Levels of dimerized IRF3 were assessed by native PAGE from THP-1 cells subjected to TRIM21 or control knockdown, and stimulated for 12 h by herring testis DNA (HT-DNA) transfected into the cells in the presence of 200 U/mL IFN-γ. […]
# Detection of IRF3 dimerization was performed by native polyacrylamide gel electrophoresis (PAGE) as previously described (Takahasi et al., 2003). Quantitative RT-PCR was performed as previously described (Kimura et al., 2013) using the following primer sets: ULK1, ([…], […]); BECN1, ([…], […]); ACTIN, ([…], […]); TRIM1, ([…], […]); TRIM5, ([…], […]); TRIM8, ([…], […]); TRIM16, ([…], […]); TRIM20, ([…], […]); TRIM21, ([…], […]); TRIM22, ([…], […]); TRIM28, ([…], […]); TRIM56, ([…], […]); and TRIM65, ([…], […]). […]
# [1] = tested on: NLRP3, NLRP1, pro-caspase 1, TRIM20; test: Levels of inflammasome components and GFP-TRIM20 in cells expressing GFP-TRIM20 after autophagy induction (EBSS); assay type: cell-based; settings: EBSS 3 h, with bafilomycin A1
# Protocol: (§1) (A) Levels of NLRP3 were determine in lysates from THP-1 cells subjected to TRIM20 or Scr siRNA were activated with 1,000 U/mL IFN-γ for 3 h, and 2.5 μg/mL LPS for 2 h (for optimal TRIM20 expression; Supplementary FIG. 24B). RI, relative intensity. (B) Levels of NLRP3 were determined from THP-1 subjected to TRIM20 or control knockdown and treated or not with bafilomycin A1 (Baf A1). (C) The abundance of NLRP3 protein was determined from THP-1 cells subjected to TRIM20 or control knockdown and exposed to Escherichia coli strain LF82 and IFN-γ in the presence or absence of bafilomycin. (D) The abundance of NLRP3 protein was determined from primary human MDMs subjected to TRIM20 or control knockdown and exposed to LPS and IFN-γ in the presence or absence of bafilomycin. (E) Levels of NLRP3 were determined from THP-1 cells subjected to ULK1, Beclin 1, or Scr siRNA were treated with IFN-γ and LPS. (F-H) Levels of NLRP3 (F), NLRP1 (G), or pro-capsase 1 (H) were determined in cells expressing GFP or GFP-TRIM20 following autophagy induction (EBSS, 3 h) in the presence or absence of bafilomycin A1. Data, means±SE, n≥3, *P<0.05, ^†P≥0.05 (ANOVA).
# (A) Co-immunoprecipitation analysis of deletion variants of TRIM20 (as GFP fusions; asterisks denote fusion products on the bottom blot) with NLRP3 in HEK293 cells. (B) THP-1 cells were treated with IFN-γ for 3 h, additionally treated with 2.5 μg/ml of LPS for indicated periods, and TRIM20 mRNA levels were determined by quantitative PCR. […] (C and D) Levels of NLRP3 were determined in lysates from THP-1 cells subjected to TRIM20 or Scr siRNA were (C) untreated either IFN-γ or LPS, or (D) LPS alone for 2 h. (E) THP-1 cells were treated with 1.0 μg/ml of LPS for 3 h, and levels of NLRP3 in lysate were determined by immunoblots. (F) Knockdown efficacies of ULK1 and Beclin 1 by siRNA were examined by quantitative RT-PCR. (G and H) Levels of GFP-TRIM20 were determined in cells co-expressing (G) with or (H) without NLRP3 following autophagy induction (EBSS, 3 h) in the presence or absence of bafilomycin A1. […]
# NOD2 = test: Western blot of NOD2 levels in HEK293T cells co-expressing GFP-IRGM and Flag-NOD2; assay type: cell-based; settings: Bafilomycin A1 100 nM for 8 h
# Protocol: (A) Effects of IRGM expression on NOD2 levels in transfected HEK293T cells. Data, means±SE; *, p<0.05 (Student's unpaired t test). (B) Lysates of HEK293T cell co-expressing GFP or GFP-IRGM and Flag-NOD2, untreated/treated with Bafilomycin A1 (100 nM for 8 h) were subjected to Western blotting. (C) Lysates of cells co-expressing Flag-NOD2 and GFP, GFP-IRGM, or GFP-IRGM-K^mut were subjected to Western blotting. (D, E) Lysates from HEK293T cells co-expressing Myc-ULK1 and either GFP or increasing amounts of GFP-IRGM were subjected to Western blotting as in (D) with the relative abundance of Myc-ULK1 shown in (E). Blot was processed (dashed vertical line) to remove irrelevant lanes. (F) HEK293T cells transfected with plasmids encoding GFP, GFP-IRGM, or GFP-IRGM-K^mut and either Myc-ULK1 or Flag-Beclin 1 were lysed and subjected to Western blotting. Data from densitometric analyses of Western blots (B, C, E), means±SE, n=3*, p<0.05 (ANOVA). (G) Depiction of the role of IRGM ubiquitination in NOD2 degradation and ULK1 stabilization. See also FIG. 13.
# NLRP3 = NLRP3 levels by immunoblot in THP-1 cells; assay type: cell-based, human; settings: THP-1 cells treated with IFN-γ and LPS, with or without bafilomycin A1
# Protocol: as §1, with “Data, means±SE, n≥3, *P<0.05, ^†P≥0.05 (ANOVA).” left out
# (A) Co-immunoprecipitation analysis of deletion variants of TRIM20 (as GFP fusions; asterisks denote fusion products on the bottom blot) with NLRP3 in HEK293 cells. […] (E) THP-1 cells were treated with 1.0 μg/ml of LPS for 3 h, and levels of NLRP3 in lysate were determined by immunoblots. […]
compound,measurement,setting,value
c1cc(-c2cnn3cc(-c4ccc(OCCN5CCCCC5)cc4)cnc23)ccn1 [Compound C],AMPK inhibition,AMPK,potent inhibitor of AMPK
CO/C1=C\C(C)=C\[C@@H](C)[C@@H](O)[C@@H](C)C/C(C)=C/C=C/[C@H](OC)[C@@H]([C@@H](C)[C@@H](O)[C@H](C)[C@@]2(O)C[C@@H](O)[C@H](C)[C@@H](C(C)C)O2)OC1=O [bafilomycin A1],dimerized IRF3 degradation,dimerized IRF3,protected dimerized IRF3 from degradation
same,TRIM20 degradation in the presence of NLRP3,[1]; GFP-TRIM20 co-expressed with NLRP3,protected
same,degradation of pro-caspase 1 and NLRP1 co-expressed with TRIM20,[1]; cells expressing GFP-TRIM20,inhabitable
same,destabilizing effect of TRIM20 overexpression on NLRP3 levels,[1]; cells expressing GFP-TRIM20,suppressed
same,IRGM-promoted NOD2 degradation,NOD2,partially blocked
same,NLRP3 degradation,NLRP3,protected NLRP3
